Test results from US12410163B2, “Compounds as GLP-IR agonists” (Terns Pharmaceuticals, Inc., priority 2022, dated 2025).

Experiments:
Rat pharmacokinetics [1] = assay type: in vivo; conditions: male Sprague-Dawley rats, plasma, route not stated in table (IV or oral gavage 10 mL/kg of 0.3 or 0.6 mg/mL)
Rat pharmacokinetics [2] = assay type: in vivo; set-up: AUC: concentration or dose not given beside the values; conditions: male Sprague-Dawley rats, plasma, route not given; for half-life: read-out: Rat T1/2 (converted)
Procedure: Intravenous dosing: Compounds were formulated at 0.5 mg/mL in a solution comprising 5% polyethylene glycol 400 and 95% (12% (w/v) sulfobutyl-β-cyclodextrin in water) (v/v). Formulated compounds were sterile filtered through a 0.22 micron filter before dosing. Compounds were administered to male, 7-11-week-old Sprague-Dawley rats by jugular vein cannula infusion over 30 minutes at a dose of 1 mg/kg. […]
Sample collection: Blood collections of about 0.2 mL per time point were performed from jugular vein or other suitable site of each animal, into pre-chilled commercial EDTA-K2 tubes and placed on wet ice until centrifugation. Blood samples were processed for plasma by centrifugation at approximately 4° C., 3,200 g for 10 min. Plasma was collected and transferred into pre-labeled 96 well plate or polypropylene tubes, quick frozen over dry ice and kept at −60° C. or lower until LC-MS/MS analysis.
Data analysis: Plasma concentration versus time data was plotted in graph and analyzed by non-compartmental approaches using the Phoenix WinNonlin 6.3 software program. Related PK parameters were calculated according to dosing route, e.g., CL, Vdss and C0 for intravenous administration, Cmax, Tmax or % F for extravascular administration, and T1/2, AUC(0-t), AUC(0-inf), MRT(0-t), MRT(0-inf) for all routes.

human GLP-1R receptor = target: T1, human GLP-1R receptor (Homo sapiens, UniProt P43220); assay: GLP-1R low expression cell assay (cAMP TR-FRET, CHO-K1_hGLP-1Rlow_clone10); assay type: cell-based; conditions: CHO-K1_hGLP-1Rlow_clone10 cells, percent activation relative to control GLP-1 peptide
T1 construct: expressed in transfected cells
Outline: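 CHO-K1 cells stably expressing low surface levels of human GLP-1R were exposed to 10-point, 3-fold compound dilutions for 30 min at 25 °C, then cAMP was read by TR-FRET (Eu-cAMP/ULight-anti-cAMP, 15 min). EC50 came from Hill fits of percent activation relative to a GLP-1 control agonist, duplicate wells.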

T1 sequence (P43220 24-463): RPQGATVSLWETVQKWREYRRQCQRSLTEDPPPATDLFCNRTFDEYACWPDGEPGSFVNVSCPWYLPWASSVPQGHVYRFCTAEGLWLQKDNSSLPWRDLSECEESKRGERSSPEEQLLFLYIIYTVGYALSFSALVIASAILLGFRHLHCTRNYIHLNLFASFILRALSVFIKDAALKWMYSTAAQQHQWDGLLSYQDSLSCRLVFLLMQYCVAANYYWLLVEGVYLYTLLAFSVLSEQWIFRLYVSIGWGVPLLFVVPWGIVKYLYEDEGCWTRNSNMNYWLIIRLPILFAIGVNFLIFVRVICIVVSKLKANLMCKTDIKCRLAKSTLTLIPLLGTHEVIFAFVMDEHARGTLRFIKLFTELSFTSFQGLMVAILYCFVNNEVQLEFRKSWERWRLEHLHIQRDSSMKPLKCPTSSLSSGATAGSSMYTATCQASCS

| SMILES | Cmax (Rat pharmacokinetics [1]) | AUC (Rat pharmacokinetics [2]) | half-life (Rat pharmacokinetics [2]) | EC50 (human GLP-1R receptor) |
| --- | --- | --- | --- | --- |
| N#Cc1ccc(COc2cccc(N3CCN(Cc4nc5ccc(C(=O)O)cc5n4Cc4cncs4)[C@H]4C[C@H]43)n2)c(F)c1 (single isomer, unassigned) [Compound 2, 2-((5-(6-((4-Cyano-2-fluorobenzyl)oxy)pyridin-2-yl)-2,5-diazabicyclo[4.1.0]heptan-2-yl)methyl)-1-(thiazol-5-ylmethyl)-1H-benzo[d]imidazole-6-carboxylic Acid] | 44.1 ± 6.5 ng/mL | 63.5 ± 11.1 ng·h/mL | 2.41 h | 50 to 100 nM |
| N#Cc1ccc(COc2ccnc(N3CCN(Cc4nc5ccc(C(=O)O)cc5n4Cc4cncs4)[C@@H]4C[C@@H]43)n2)c(F)c1 [Compound 20, 2-((5-(4-((4-Cyano-2-fluorobenzyl)oxy)pyrimidin-2-yl)-2,5-diazabicyclo[4.1.0]heptan-2-yl)methyl)-1-(thiazol-5-ylmethyl)-1H-benzo[d]imidazole-6-carboxylic Acid] | 15.5 ± 7.15 ng/mL | 22.9 ± 30 ng·h/mL | 0.578 h | 5 to 50 nM |
| N#Cc1ccc(COc2cccc([C@H]3CCN(Cc4nc5ccc(C(=O)O)cc5n4Cc4cncs4)[C@@H]4C[C@H]34)n2)c(F)c1 (single isomer, unassigned) [Compound 4, 2-((5-(6-((4-Cyano-2-fluorobenzyl)oxy)pyridin-2-yl)-2-azabicyclo[4.1.0]heptan-2-yl)methyl)-1-(thiazol-5-ylmethyl)-1H-benzo[d]imidazole-6-carboxylic Acid] | 70 ± 32 ng/mL | 86.3 ± 27.2 ng·h/mL | 0.92 h | < 5 nM |
| CCn1nncc1Cn1c(CN2CCN(c3cccc(OCc4ccc(C#N)cc4F)n3)[C@H]3C[C@H]32)nc2ccc(C(=O)O)cc21 [Compound 45, 2-((5-(6-((4-Cyano-2-fluorobenzyl)oxy)pyridin-2-yl)-2,5-diazabicyclo[4.1.0]heptan-2-yl)methyl)-1-((1-ethyl-1H-1,2,3-triazol-5-yl)methyl)-1H-benzo[d]imidazole-6-carboxylic Acid] | 9.62 ng/mL | 9.48 ng·h/mL |  | < 5 nM |
| CC1(c2ccc(C#N)cc2F)Oc2cccc(N3CCN(Cc4nc5ccc(C(=O)O)cc5n4CC4(C#N)CC4)C4CC43)c2O1 (stereo not shown) [Compound 40, 2-((5-(2-(4-Cyano-2-fluorophenyl)-2-methylbenzo[d][1,3]dioxol-4-yl)-2,5-diazabicyclo[4.1.0]heptan-2-yl)methyl)-1-((1-cyanocyclopropyl)methyl)-1H-benzo[d]imidazole-6-carboxylic Acid] | 28.3 ± 6.42 ng/mL | 44.2 ± 8.62 ng·h/mL | 2.78 h | < 5 nM |
| N#Cc1ccc(COc2cccc([C@@H]3CCN(Cc4nc5ccc(C(=O)O)cc5n4Cc4cncs4)[C@H]4C[C@@H]34)n2)c(F)c1 (single isomer, unassigned) [Compound 15, 2-((5-(6-((4-Cyano-2-fluorobenzyl)oxy)pyridin-2-yl)-2-azabicyclo[4.1.0]heptan-2-yl)methyl)-1-(thiazol-5-ylmethyl)-1H-benzo[d]imidazole-6-carboxylic Acid] | 77.4 ± 16.2 ng/mL | 71.7 ± 16.1 ng·h/mL | 0.597 h | 5 to 50 nM |
| CC1(c2ccc(C#N)cc2F)Oc2cccc(C3CCN(Cc4nc5ccc(C(=O)O)cc5n4Cc4cncs4)CC3)c2O1 (stereo not shown) [Compound 18] | 89.5 ± 23.6 ng/mL | 84.9 ± 32.2 ng·h/mL | 0.89 h | < 5 nM |
| N#Cc1ccc(COc2cccc([C@H]3CCN(Cc4nc5ccc(C(=O)O)cc5n4Cc4cncs4)[C@H]4C[C@@H]34)n2)c(F)c1 (single isomer, unassigned) [Compound 14, 2-((5-(6-((4-Cyano-2-fluorobenzyl)oxy)pyridin-2-yl)-2-azabicyclo[4.1.0]heptan-2-yl)methyl)-1-(thiazol-5-ylmethyl)-1H-benzo[d]imidazole-6-carboxylic Acid] | 59.3 ± 5.68 ng/mL | 66.8 ± 7.06 ng·h/mL | 0.645 h | 5 to 50 nM |
| N#Cc1ccc(COc2cccc([C@@H]3CCN(Cc4nc5ccc(C(=O)O)cc5n4Cc4cncs4)[C@@H]4C[C@@H]43)n2)c(F)c1 (single isomer, unassigned) [Compound 5, 2-((5-(6-((4-Cyano-2-fluorobenzyl)oxy)pyridin-2-yl)-2-azabicyclo[4.1.0]heptan-2-yl)methyl)-1-(thiazol-5-ylmethyl)-1H-benzo[d]imidazole-6-carboxylic Acid] | 282 ± 4.04 ng/mL | 418 ± 49.6 ng·h/mL | 1.31 h | 5 to 50 nM |
| N#Cc1ccc(COc2cccc(N3CCN(Cc4nc5ccc(C(=O)O)cc5n4Cc4cncs4)[C@@H]4C[C@@H]43)n2)c(F)c1 (single isomer, unassigned) [Compound 1, 2-((5-(6-((4-cyano-2-fluorobenzyl)oxy)pyridin-2-yl)-2,5-diazabicyclo[4.1.0]heptan-2-yl)methyl)-1-(thiazol-5-ylmethyl)-1H-benzo[d]imidazole-6-carboxylic Acid] | 34.7 ± 13.7 ng/mL | 71.8 ± 90.3 ng·h/mL | 4.58 h | < 5 nM |
| N#Cc1ccc(COc2cccc(N3CCN(Cc4nc5ccc(C(=O)O)cc5n4C[C@@H]4CCO4)[C@@H]4C[C@@H]43)n2)c(F)c1 (single isomer, unassigned) [Compound 43] | 64.5 ± 17.8 ng/mL | 118 ± 10 ng·h/mL | 1.19 h | < 5 nM |
